Assay results reported in paper PMC2953793 (Cancer chemotherapy and pharmacology, 2009).
Values joined by “and” are separate entries in the source; they are usually repeats but may differ in a detail not shown here. Identical values can stand only once. Like-named read-outs stand apart in the source and are kept apart here.

Legend:
[1] = tested on: PARP; details: cited from earlier work
[2] = CD-1 mice; cited from earlier work
[3] = tested on: PARP; details: phase 0 study, National Cancer Institute; single oral dose of 25 or 50 mg; cited from earlier work
[4] = tested on: PARP
[5] = tested on: human colon cancer and lung cancer xenograft models; details: human colon cancer (ref 12) and lung cancer xenograft models (ref 1); cited from earlier work
[6] = individual animals, single 5 mg/kg dose, 5 mg/kg
[7] = individual animals, single 5 mg/kg dose, model parameter, 5 mg/kg
[8] = mean of three animals, single 5 mg/kg dose, model parameter

## C[C@]1(c2nc3c(C(N)=O)cccc3[nH]2)CCCN1 [ABT-888]
[1]
  concentrations required for ex vivo PARP inhibition in PBMCs: 0.1 to 0.3 µM
[2]
  accumulation in intracranial tumors versus normal brain: preferentially accumulate in intracranial tumors versus normal brain
[3]
  PARP inhibition in PBMCs and biopsied tumors: > 90%
[4]; individual animals, PBMCs, 2 h post versus pre-treatment, single oral 5 mg/kg
  % PARP inhibition: 52% and 71% and 78%
[4]; mean ± SD of three animals, 2 h after a single dose
  reduction of PARP activity in PBMCs compared with pre-treatment levels: 67 ± 13%
[4]; range across animals, 2 h after single oral dose 5 mg/kg
  PARP inhibition in NHP PBMCs: 52–78%
[5]
  potentiation of radiation: potentiates radiation
[6]
  V1/F model-estimated apparent volume of distribution: 40.0 L/kg and 24.2 L/kg
  t1/2P model-estimated plasma half-life: 3.9 h and 4.3 h
[7]
  K12 rate constant for transfer from plasma to CSF: 7e-06 h⁻¹ and 4.7e-06 h⁻¹ and 1.65e-05 h⁻¹
  K21 rate constant for transfer from CSF to plasma: 0.805 h⁻¹ and 0.420 h⁻¹ and 0.913 h⁻¹
  Ka absorption rate constant: 12.5 h⁻¹ and 53.5 h⁻¹ and 44.2 h⁻¹
  Ke plasma elimination rate constant: 0.18 h⁻¹ and 0.16 h⁻¹
  τ time-delay for absorption of oral drug: 0.76 h and 0.78 h and 2.75 h
male, rhesus monkey, plasma, po, 5 mg/kg, V1/F model-estimated apparent volume of distribution, individual animals, single 5 mg/kg dose
  Vd/F: 41.5 L/kg
[8]
  K12 rate constant for transfer from plasma to CSF: 9.4e-06 h⁻¹
  K21 rate constant for transfer from CSF to plasma: 0.71 h⁻¹
  Ka absorption rate constant: 36.7 h⁻¹
  τ time-delay for absorption of oral drug: 1.43 h
Range across animals, oral 5 mg/kg
  time delay for absorption: 46 to 165 min
